For data set [1], the system named is IDH mutant tumors. Nature of the data set: Flow cytometry of tumor-infiltrating lymphocytes (TILs). The format is in vivo. To be noted: IDH mutant tumor-bearing mice, vs DMSO-treated controls. Here is the method:
Flow cytometry for TILs. IDH WT and mutant tumors were dissociated to form a single cell suspension (SCS). The SCS was then overlaid onto sucrose gradient (Lympholyte-M) and centrifuged at 2400 rpm for 20 minutes. Immune cells at the interphase of the 2 liquids were collected and washed once with PBS. The cells were then stained with appropriate antibodies and acquired on a BD LSR Fortessa flow cytometer. Briefly, cells were washed with PBS and stained with 1 μg antibody for 30 minutes at 4° C. After incubation, the cells were washed three times with FACS buffer (PBS+10% FBS+0.1% Na-azide), resuspended in a final volume of 200 μl of FACS buffer and run through the flow cytometer. Flow cytometry data was analyzed on the Flowjo® v9.1 software. Antibodies used for flow cytometry were as follows: CD45- PE-Cy7, NKp46-FITC, CD11b-APC-Cy7, Gr-1-APC, F4/80-eFluor450, Ly6-c-PerCP-Cy5.5 and CD11c-PE.
ATRA promotes tumor stasis in IDH mutant tumor-bearing mice. To determine the value of ATRA as a therapeutic modality, its anti-tumor efficacy in vivo was evaluated. Athymic nude mice were implanted with 10^6 IDH mutant or WT primary glioma cells in the flank. 21 days after tumor inoculation (when tumors were about 25 mm^2), 10 mg/kg ATRA was administered every other day for 21 days. Tumors were measured every 3 days. […] Resected tumors from ATRA or DMSO-treated mice were digested to obtain single cell suspensions and assessed for killing by human and mouse NK cells ex vivo.
Background: A flow cytometer gives signals particle by particle.

The test system of data set [2] is IDH mutant cells from primary gliomas. Nature of the data set: Gene microarray (Clariom S) and pathway analysis. Type of data set: cell-based, human. On the procedure:
To evaluate overall gene expression changes and to decipher pathway activation in IDH mutants after ATRA treatment, a gene microarray was performed. IDH wt and mutant cells from primary gliomas were treated with 1 μM ATRA for 48 hours and RNA was extracted from the cells. Microarray analysis was performed using Clariom S microarray chips.

Data set [3] concerns IDH mutant chondrosarcoma cells (HT-1080 and SW 1353). Put plainly: NK killing of chondrosarcoma cells. To be noted: different doses of ATRA, 48 hours; at least two chondrosarcoma cell lines. The format is cell-based. On the procedure: IDH WT chondrosarcoma cells and IDH mutant chondrosarcoma cells were treated with different doses of ATRA or DMSO for 48 hours and were evaluated for killing by NK cells (FIG. 11F). NK cytotoxicity on IDH WT chondrosarcoma cells and IDH mutant chondrosarcoma cells was evaluated.

The conditions of data set [4]: mouse, in vivo. On the procedure:
Mice. 6-8 week old Balb/c nude mice (CAnN.Cg-Foxn1nu/Crl) were purchased from Charles River Laboratories. Mice were injected with 10^6 IDH WT or mutant primary glioma cells sub-cutaneously in the right flank. When the tumors were about 25 mm^2, ATRA treatment was started. 10 mg/Kg ATRA was administered to mice intra-peritoneally (i.p.) every alternate day until termination of the experiment. DMSO-treated mice were used as controls. The mice were monitored for signs of drug toxicity such as weight-loss, lethargy, skin lesions and diarrhea. The tumors were measured every 3 days, and the mice were sacrificed when the tumors were about 400 mm^2. For NK depletion experiments, 6-week old B6 nude mice (B6.Cg-Foxn1nu/J) were purchased from The Jackson Laboratory. NK depletion was performed by injecting mice with 200 μg of anti-NK1.1 antibody (Biolegend) i.p. on the day ATRA treatment was started. Mice injected with 200 μg of an isotype antibody were used as controls. Mice were bled and evaluated for circulating NKs by flow cytometry.
Retinoic acid has been used as a chemotherapeutic agent in a wide variety of cancers, in pre-clinical as well as clinical applications. 13-cis-RA is the most common form of RA used in clinics, and is effective in a variety of neoplasms. Therefore, the efficacy of 13-cis RA was compared with ATRA and Bexarotene (a synthetic retinoic acid analogue) in IDH mutant gliomas.

The source of these data is patent publication US10821091B2, “Retinoid compositions and methods of increasing immune cell-mediated killing of IDH mutant cancer cells” (UNIVERSITY OF PITTSBURGH—OF THE COMMONWEALTH SYSTEM OF …, priority 2017, dated 2020).

As to `CC1=C(/C=C/C(C)=C/C=C/C(C)=C/C(=O)O)C(C)(C)CCC1` [ATRA, all-trans retinoic acid], in data set [1], the “MDSCs and monocytes in TILs” value is “lower MDSCs and monocytes”; the “NKs in TILs” value was “higher number”; the “infiltration of immune cells overall (TILs)” value is “higher infiltration of immune cells overall”; the “macrophages in TILs” value is “higher number of macrophages”. Besides, the “gene expression of inflammatory chemokines CXCL1, CXCL9 and CXCL10” value in data set [2] (1 μM ATRA 48 hours (data not shown)) is “upregulated the gene expression of multiple inflammatory chemokines”. For the same compound, the “pathway analysis of upregulated genes” value in data set [2] (IDH mutant cells, 1 μM ATRA 48 hours) is “immune cell chemotaxis was one of the most upregulated pathways”. Also, the NK-mediated cell killing entry in data set [3] was “increased NK-mediated cell killing of IDH mutant chondrosarcoma cells”. For the same compound, the “toxicity in treated mice (weight loss and wasting)” value in data set [4] is listed as “not observed in ATRA-treated mice”.
